Reference: ChEMBL document CHEMBL1123560, “Novel 1H-benzimidazol-4-ols with potent 5-lipoxygenase inhibitory activity” (J Med Chem, 1987)

Columns and labels:
[1] = target: T1, Polyunsaturated fatty acid 5-lipoxygenase (Rattus norvegicus, UniProt P12527); assay: In vitro inhibition of RBL-1 5-lipoxygenase; Value ranges from 4.0-6.4; assay type: cell-based
T1 sequence (P12527 whole entry): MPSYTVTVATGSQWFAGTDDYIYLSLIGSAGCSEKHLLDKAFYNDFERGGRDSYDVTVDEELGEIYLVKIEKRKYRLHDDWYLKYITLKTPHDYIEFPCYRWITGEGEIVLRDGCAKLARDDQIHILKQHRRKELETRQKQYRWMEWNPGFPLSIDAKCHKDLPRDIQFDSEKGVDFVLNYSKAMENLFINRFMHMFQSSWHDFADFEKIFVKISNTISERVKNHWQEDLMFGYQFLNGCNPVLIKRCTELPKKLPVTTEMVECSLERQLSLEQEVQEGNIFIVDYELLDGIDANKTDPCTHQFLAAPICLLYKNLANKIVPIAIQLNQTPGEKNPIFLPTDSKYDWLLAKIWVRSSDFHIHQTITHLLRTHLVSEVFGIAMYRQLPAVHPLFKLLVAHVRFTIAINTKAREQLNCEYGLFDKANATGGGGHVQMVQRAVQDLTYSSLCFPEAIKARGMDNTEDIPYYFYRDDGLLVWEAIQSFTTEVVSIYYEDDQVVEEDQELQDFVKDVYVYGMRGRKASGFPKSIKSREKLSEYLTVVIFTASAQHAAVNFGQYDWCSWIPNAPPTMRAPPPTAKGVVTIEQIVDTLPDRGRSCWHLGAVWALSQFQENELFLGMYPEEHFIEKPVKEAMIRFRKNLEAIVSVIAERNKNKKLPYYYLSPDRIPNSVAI

Rattus norvegicus [2] = assay: (§1) In vivo activity against the release of SRS(slow releasing substance)-A in a rat passive intraperitoneally; assay type: functional
[3] = target: T1, Polyunsaturated fatty acid 5-lipoxygenase; assay: In vitro inhibition of RBL-1 5-lipoxygenase; Value ranges from 1.7-2.6; assay type: cell-based
[4] = target: T2, Polyunsaturated fatty acid 5-lipoxygenase (Rattus norvegicus) (UniProt P12527); assay: In vitro inhibition of RBL-1 5-lipoxygenase at 20 uM; assay type: cell-based
T2 sequence (whole entry): T1 sequence (P12527 whole entry)

[5] = target: T1, Polyunsaturated fatty acid 5-lipoxygenase; assay: In vitro inhibition of RBL-1 5-lipoxygenase; assay type: cell-based
[6] = target: T1, Polyunsaturated fatty acid 5-lipoxygenase; assay: In vitro inhibition of RBL-1 5-lipoxygenase; Value ranges from 3.3-3.5; assay type: cell-based
Rattus norvegicus [7] = assay: as §1; assay type: functional; parameters: concentration or dose not given beside the values
[8] = target: T1, Polyunsaturated fatty acid 5-lipoxygenase; assay: In vitro inhibition of RBL-1 5-lipoxygenase; Value ranges from 1.0-1.5; assay type: cell-based
Rattus norvegicus [9] = assay: Inhibition of monocyte accumulation (exudate volume) in a rat pleural exudate model of inflammation at 6 ug/kg administered perorally; assay type: functional; details: po
Rattus norvegicus [10] = assay: Inhibition of monocyte accumulation (exudate volume) in a rat pleural exudate model of inflammation at 24 ug/kg administered perorally; assay type: functional; details: po
Rattus norvegicus [11] = assay: Inhibition of monocyte accumulation (exudate volume) in a rat pleural exudate model of inflammation at 3 ug/kg administered perorally; assay type: functional; details: po
[12] = target: T1, Polyunsaturated fatty acid 5-lipoxygenase; assay: In vitro inhibition of RBL-1 5-lipoxygenase; Value ranges from 1.0-2.4; assay type: cell-based
[13] = target: T1, Polyunsaturated fatty acid 5-lipoxygenase; assay: In vitro inhibition of RBL-1 5-lipoxygenase; Value ranges from 0.3-1.6; assay type: cell-based
[14] = target: T1, Polyunsaturated fatty acid 5-lipoxygenase; assay: In vitro inhibition of RBL-1 5-lipoxygenase; Value ranges from 1.1-1.6; assay type: cell-based
[15] = target: T1, Polyunsaturated fatty acid 5-lipoxygenase; assay: In vitro inhibition of RBL-1 5-lipoxygenase; Value ranges from 1.0-1.7; assay type: cell-based
[16] = target: T1, Polyunsaturated fatty acid 5-lipoxygenase; assay: In vitro inhibition of RBL-1 5-lipoxygenase; Value ranges from 3.8-7.1; assay type: cell-based
[17] = target: T1, Polyunsaturated fatty acid 5-lipoxygenase; assay: In vitro inhibition of RBL-1 5-lipoxygenase; Value ranges from 1.8-5.7; assay type: cell-based
[18] = target: T1, Polyunsaturated fatty acid 5-lipoxygenase; assay: In vitro inhibition of RBL-1 5-lipoxygenase; Value ranges from 4.9-11.6; assay type: cell-based
Rattus norvegicus [19] = assay: Inhibition of monocyte accumulation (exudate volume) in a rat pleural exudate model of inflammation at 45 ug administered perorally; assay type: functional
Rattus norvegicus [20] = assay: Inhibition of monocyte accumulation (DNA content) in a rat pleural exudate model of inflammation at 45 ug administered perorally; assay type: functional
[21] = target: T1, Polyunsaturated fatty acid 5-lipoxygenase; assay: In vitro inhibition of RBL-1 5-lipoxygenase; Value ranges from 1.3-2.8; assay type: cell-based
[22] = target: T1, Polyunsaturated fatty acid 5-lipoxygenase; assay: In vitro inhibition of RBL-1 5-lipoxygenase; Value ranges from 1.8-2.8; assay type: cell-based
[23] = target: T1, Polyunsaturated fatty acid 5-lipoxygenase; assay: In vitro inhibition of RBL-1 5-lipoxygenase; Value ranges from 7.5-11.8; assay type: cell-based
[24] = target: T1, Polyunsaturated fatty acid 5-lipoxygenase; assay: In vitro inhibition of RBL-1 5-lipoxygenase; Value ranges from […]; assay type: cell-based
[25] = target: T1, Polyunsaturated fatty acid 5-lipoxygenase; assay: In vitro inhibition of RBL-1 5-lipoxygenase; Value ranges from 0.9-4.0; assay type: cell-based
[26] = target: T1, Polyunsaturated fatty acid 5-lipoxygenase; assay: In vitro inhibition of RBL-1 5-lipoxygenase; Value ranges from 0.4-2.2; assay type: cell-based
[27] = target: T1, Polyunsaturated fatty acid 5-lipoxygenase; assay: In vitro inhibition of RBL-1 5-lipoxygenase; Value ranges from 2.46-2.63; assay type: cell-based
[28] = target: T1, Polyunsaturated fatty acid 5-lipoxygenase; assay: In vitro inhibition of RBL-1 5-lipoxygenase; Value ranges from 1.9-2.4; assay type: cell-based
[29] = target: T1, Polyunsaturated fatty acid 5-lipoxygenase; assay: In vitro inhibition of RBL-1 5-lipoxygenase; Value ranges from 1.4-3.2; assay type: cell-based

## Cc1ccc(O)c2nc(Cc3cccnc3)[nH]c12
[1]
  IC50: 5000 nM

## COc1ccc(Cc2nc3c(C)ccc(O)c3[nH]2)cc1.Cl
Rattus norvegicus [2]
  Inhibition: 58%
[3]
  IC50: 2100 nM

## Cc1ccc(O)c2[nH]c(-c3cccc(C(F)(F)F)c3)nc12
[4]
  inhibition: > 90%

## Oc1cccc2[nH]c(Cc3ccccc3)nc12
[5]
  IC50: 20000 nM

## COc1ccccc1Cc1nc2c(C)ccc(O)c2[nH]1.Cl
[6]
  IC50: 3400 nM
Rattus norvegicus [7]
  Inhibition: 64%

## Cc1ccc(O)c2[nH]c(-c3ccccc3)nc12
[8]
  IC50: 1200 nM

## Cc1cc(C(C)(C)C)c(O)c2[nH]c(C(F)(F)F)nc12
Rattus norvegicus [9]
  inhibition in vivo at 0.006 mg/kg: 49%
Rattus norvegicus [10]
  inhibition in vivo at 0.024 mg/kg: 48%
Rattus norvegicus [11]
  inhibition in vivo at 0.003 mg/kg: 52%

## CC(Cc1ccc(O)c(O)c1)C(C)Cc1ccc(O)c(O)c1 (stereo not given) [NORDIHYDROGUAIARETIC ACID]
Rattus norvegicus [7]
  Inhibition: 64%

## COc1cccc(Cc2nc3c(C)ccc(O)c3[nH]2)c1
[12]
  IC50: 1700 nM

## Cc1ccc(O)c2[nH]c(Cc3ccc(Cl)cc3)nc12
[13]
  IC50: 1000 nM

## Cc1cc(C(C)(C)C)c(O)c2[nH]c(Cc3ccccc3)nc12
[14]
  IC50: 1300 nM

## Cc1ccc(O)c2[nH]c(-c3ccc(N(C)C)cc3)nc12
[15]
  IC50: 1300 nM

## COc1ccc(Cc2nc3c(C)ccc(O)c3[nH]2)cc1OC.Cl
[16]
  IC50: 5200 nM
Rattus norvegicus [7]
  Inhibition: 55%

## Cc1ccc(O)c2[nH]c(-c3ccco3)nc12
[17]
  IC50: 3300 nM

## Cc1ccc(O)c2[nH]c(Cc3ccc(O)cc3)nc12.Cl
[18]
  IC50: 6900 nM
Rattus norvegicus [7]
  Inhibition: 58%

## C[C@@H]1C[C@H]2[C@@H]3CCC4=CC(=O)C=C[C@]4(C)[C@@]3(F)[C@@H](O)C[C@]2(C)[C@@]1(O)C(=O)CO [DEXAMETHASONE]
Rattus norvegicus [19]
  Inhibition: 80%
Rattus norvegicus [20]
  Inhibition: 71%

## Cc1ccc(O)c2[nH]c(CCc3ccccc3)nc12
[21]
  IC50: 2100 nM

## Cc1ccc(O)c2[nH]c(Cc3cccc4ccccc34)nc12
[22]
  IC50: 2300 nM

## CCCc1nc2c(C)ccc(O)c2[nH]1
[5]
  IC50: ~10000 nM

## Cc1ccc(O)c2[nH]c(Cc3ccc4ccccc4c3)nc12
[4]
  inhibition: > 90%

## COc1cc(Cc2nc3c(C)ccc(O)c3[nH]2)cc(OC)c1OC.Cl
[23]
  IC50: 9700 nM
Rattus norvegicus [7]
  Inhibition: 59%

## COc1ccc(Cc2nc3c(O)cccc3[nH]2)cc1
[5]
  IC50: 20000 nM

## CCOc1ccc(Cc2nc3c(C)ccc(O)c3[nH]2)cc1
[24]
  IC50: 3000 nM

## COc1ccc(Cc2nc3c(C)cc(C(C)(C)C)c(O)c3[nH]2)cc1
[25]
  IC50: 2200 nM

## Cc1ccc(O)c2nc(Cc3ccccc3)[nH]c12
[26]
  IC50: 1200 nM

## NC1=NN(c2cccc(C(F)(F)F)c2)CC1 [BW-755C]
Rattus norvegicus [7]
  Inhibition: 25%

## Cc1ccc(Cc2nc3c(O)ccc(C)c3[nH]2)cc1
[27]
  IC50: 2540 nM

## Cc1ccc(O)c2[nH]c(Cc3cccs3)nc12
[28]
  IC50: 2100 nM

## O=C1CCN(c2ccccc2)N1 [PHENIDONE]
Rattus norvegicus [7]
  Inhibition: 70%

## COc1ccc(-c2nc3c(C)ccc(O)c3[nH]2)cc1
[29]
  IC50: 2200 nM

## CC1=C(C)C(=O)C(CCCCC#CCCCC#CCO)=C(C)C1=O [DOCEBENONE]
Rattus norvegicus [7]
  Inhibition: 77%
[5]
  IC50: 2000 nM
